The term Ki denotes a measure of affinity in units of concentration, obtained from inhibition or displacement. A word on the ED50: it is the dose that gives a 50% effect, or the effect in half of the subjects. The term LD50 denotes the dose expected to kill half of the subjects tested.

The record followed here is US4971980A, “Pharmacologically active benzimidazole derivatives” (Dompe Farmaceutici S.p.A., priority 1988, dated 1990).

The subject of series [1] is sleeping time induced by sodium pentobarbital. Briefly: Effect on the sleeping time interval induced by pentobarbital. In kind it is in vivo, male mice Swiss-Nos. More on the design: key: IN: inactive at the dose of 100 mg/kg i.p. The note with it: mice, i.p., 30 minutes before 40 mg/kg i.p. sodium pentobarbital; ED100 = doubles the sleeping time vs control. Here is the method: The tests were carried out on male mice Swiss-Nos (Nossan, Correzzana, Milano) weighing 20-24 g, on an empty stomach for 18 hrs, according to the method described by Turner (Screening Methods in Pharmacology, Acad. Press, pg 70,1965). The sleep was induced by intraperitoneal administration of 40 mg/kg sodium pentobarbital. The narcosis start was considered from the moment when the animal, lying on its back, lost its straightening reflex. The narcosis end was considered from the moment when the animal recovered such reflex. The carrier or the compounds under examination were intraperitoneally administered 30 minutes before the pentobarbital administration. The resulting data are expressed as sleeping time increase per cent of the treated animals in comparison with the controls.

The target in series [2] is T1, H1 histaminergic receptors (Rattus norvegicus, UniProt P31390).
T1 construct: in homogenates of rat brain; from tissue; host or cells: rat whole brain homogenate
Briefly: Affinity towards H1 histaminergic receptors ([3H]Mepyramine displacement). The note with it: homogenates of rat brain, 25° C., 15 minutes, pH 7.5, read-out: H1-receptor binding Ki. The procedure: The incubation was performed at 25° C. for 15 minutes, in a final volume of 1 ml of 50 mM Na/K phosphate buffer, pH 7.5, in the presence of […][^3 H]Mepyramine and 1.5 mg of cerebral protein.
The test compounds were dissolved in phosphate buffer or dimethylsulfoxide (DMSO), the final concentration of DMSO was 0.5%. Incubation was terminated by filtration through glass fiber GF/B filters pre-soaked with 0.1% polyethylenimine (PEI); the radioactivity trapped by filters was counted by liquid scintillation.

For series [3], the system named is mortality induced by histamine. Briefly: Effect on the mortality induced by histamine. Type of series: in vivo, male albino guinea pigs (Dunkin-Hartley). The note with it: Cavia porcellus, po; guinea pigs, os, 60 minutes before 1,25 mg/kg i.v. histamine dihydrochloride; parentheses: range. The procedure:
The method described by Romer D. et al. (Med.Welt, 17, 791, 1966) was followed and the tests were carried out on male albino guinea pigs (Dunkin-Hartley), weighing 350-450 g, which were kept in cages with a grid floor, on an empty stomach for 24 hrs with water ad libitum.
The compounds under examination were dissolved in 0,5% carboxymethylcellolose and orally administered to the animals; 60 minutes later the same animals were intravenously treated with 1,25 mg/kg of histamine dihydrochloride in saline solution.
It was evaluated ED50 which corresponds to the amount of the compound able to inhibit 50% of the mortality induced by histamine: the estimation of ED50 was carried out applying the `probit` method (Finney D. J., Statistical methods in biological assay, pg 512, 1957).

The next series in a line: Acute toxicity (LD50). The note with it: mouse, in vivo, ip; mice, 14 days observation. Here is the method: The Letal Dose50 (LD50) was evaluated on mice using Swiss-Nos (Nossan, Correzzana, Milano) mice weighing 18-20 g each. The animals, divided into groups of 10 animals each (5M +5F), were on an empty stomach for 18 hrs, with water ad libitum, and kept in cages with grid floor. The compounds (I) were dissolved in water or suspended in 0.5% carboxymethylcellulose and intraperitoneally administered to the animals (10 ml/kg). The mortality occured in the tested animals within the following 6 hours was noted down. At the expiry of the 6th hour, the animals were allowed to eat up to the end of the experimentation which lasted 14 days. During this period all the toxic symptoms and the mortality occuring were noted.
The animals which died during the test period and those which were sacrificed at the end of the same, underwent autopsy for a macroscopic examination of their main organs. The experimental data were statistically compared with the X^2 method and LD50 was extrapolated by the `probit` method.

A value given as a limit tells only on which side of the number the result lay.

T1 sequence (P31390 whole entry): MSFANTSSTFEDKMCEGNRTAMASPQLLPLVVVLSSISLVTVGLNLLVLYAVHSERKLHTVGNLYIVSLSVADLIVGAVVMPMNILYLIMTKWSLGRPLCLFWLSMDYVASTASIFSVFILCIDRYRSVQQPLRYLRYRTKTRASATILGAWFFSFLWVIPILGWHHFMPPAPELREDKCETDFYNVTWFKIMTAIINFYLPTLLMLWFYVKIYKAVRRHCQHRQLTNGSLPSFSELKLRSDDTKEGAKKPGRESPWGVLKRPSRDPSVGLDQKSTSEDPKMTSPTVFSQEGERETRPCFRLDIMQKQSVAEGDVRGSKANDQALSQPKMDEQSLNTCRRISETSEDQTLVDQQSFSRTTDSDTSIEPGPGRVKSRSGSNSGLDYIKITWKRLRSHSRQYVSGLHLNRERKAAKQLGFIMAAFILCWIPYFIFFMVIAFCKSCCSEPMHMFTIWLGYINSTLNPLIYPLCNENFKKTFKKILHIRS

As to `CCOCCn1c(CCCN(C)C)nc2ccccc21` [Example 1, 1-(2-Ethoxyethyl)-2-(3-dimethylaminopropyl)benzimidazole], in series [1], the “sleeping time % increase ED100” value is on record as “IN”. The Ki in series [2] was 5.8 nM. For the same molecule, the ED50 in series [3] was 0.00454 mg/kg. The molecule also registered an LD50 at 336 h in “Acute toxicity (LD50)” of 250 mg/kg.

On to `CC(C)(C)c1ccc(C(O)CCCN2CCC(C(O)(c3ccccc3)c3ccccc3)CC2)cc1` (centres unmarked) [Terfenadine, reference compound], for which, in series [3], the ED50 was determined as 0.179 mg/kg. In the series “Acute toxicity (LD50)”, this molecule came in with an LD50 at 336 h of more than 100 mg/kg.

On to `CCOCCn1c(CCN(C)C)nc2ccccc21` [Example 9, 1-(2-Ethoxyethyl)-2-(2-dimethylaminoethyl)benzimidazole], for which the “sleeping time % increase ED100” value in series [1] is “IN”. Also, in series [2], the Ki came to 6.1 nM. Also, the ED50 in series [3] is 0.00501 mg/kg. This molecule gave a median lethal dose (LD50) at 336 h in the series “Acute toxicity (LD50)” of more than 100 mg/kg.

For `CN(C)CCCc1nc2ccccc2n1Cc1ccc(F)cc1` [Example 6, 1-(4-fluorobenzyl)-2-(3-dimethylaminopropyl)benzimidazole], the “sleeping time % increase ED100” value in series [1] was “IN”. For the same molecule, in series [2], the inhibition constant Ki was found to be 6.1 nM. Moreover, in series [3], the ED50 worked out at 0.026 mg/kg. Further, in the series “Acute toxicity (LD50)”, the LD50 at 336 h was more than 100 mg/kg.
